According to EP4725957A1, “GROUP OF CYCLIC ALKALINE LIPOPEPTIDE COMPOUNDS, AND PREPARATION METHOD THEREFOR AND USE THEREOF” (Institute of Medicinal Biotechnology, Chinese Academy of …, priority 2023, dated 2024):
Values after ≈ are worked out from the molar mass of the structure shown. Like-named read-outs stand apart in the source and are kept apart here. Bridge positions count the residues as written; N and C are the ends. Square brackets hold non-standard residues; d marks the D form. Peptide text beside a SMILES is read from it. * marks the point of attachment. Heptanoyl(6-Me) = CC(C)CCCCC(=O)*; dOrn = NCCC[C@@H](N)C(=O)O; Nonanoyl = CCCCCCCCC(=O)*; X1 = CC[C@H](C)CCCCC(=O)*; Heptanoyl = CCCCCCC(=O)*; Octanoyl = CCCCCCCC(=O)*; Orn = NCCC[C@H](N)C(=O)O; Dab = NCC[C@H](N)C(=O)O; Dap = NC[C@H](N)C(=O)O

What was measured:
Type in all cases: cell-based
[1] = Nephrotoxicity assay: in vitro cytotoxicity of HK-2 cells by CCK-8 assay; details: human, HK-2 cells (human renal), 72 h incubation with drug-containing medium
Summary of the method: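 HK-2 human renal cells in RPMI-1640 with 10% FBS were exposed to compounds at final 12.5–500 µg/mL for 72 h, then CCK-8 for 3 h and OD450 read. Viability was normalised to drug-free wells; IC50 came from logarithmic regression over three repeats, with polymyxin B as positive drug.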

[2] = tested on: Escherichia coli ATCC BAA-2523
Summary of the method: (§1)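 Broth microdilution MIC per CLSI in MH broth, compounds 2-fold diluted to final 64–0.03 mg/L. Inoculum (2-4) × 10^5 CFU/mL final, from 0.5 McFarland suspensions of 18-24 h colonies. Plates sealed and incubated 35-37°C for 16-20 h.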

[3] = tested on: Klebsiella pneumoniae ATCC BAA-1705 (KPC)
Summary of the method: as §1

[4] = tested on: Acinetobacter baumannii NCTC 13304 (OXA-27)
Summary of the method: as §1

[5] = tested on: Escherichia coli ATCC BAA-2340 (KPC)
Summary of the method: as §1

[6] = tested on: Pseudomonas aeruginosa ATCC 27853
Summary of the method: as §1

[7] = tested on: Pseudomonas aeruginosa PAE19-3
Summary of the method: as §1

[8] = tested on: Klebsiella pneumoniae KPN+19-15
Summary of the method: as §1

[9] = tested on: Acinetobacter baumannii ABA19-1
Summary of the method: as §1

SMILES | IC50 at 72 h [1] | MIC ([2]; Escherichia coli ATCC BAA-2523) | MIC ([3]; Klebsiella pneumoniae ATCC BAA-1705 (KPC)) | MIC ([4]; Acinetobacter baumannii NCTC 13304 (OXA-27)) | MIC ([5]; Escherichia coli ATCC BAA-2340 (KPC)) | MIC ([6]; Pseudomonas aeruginosa ATCC27853) | MIC ([7]; Pseudomonas aeruginosa PAE19-3) | MIC ([8]; Klebsiella pneumoniae KPN 19-15) | MIC ([9]; Acinetobacter baumannii ABA19-1) | MIC ([2]; ATCC BAA-2523) | MIC ([3]; ATCC BAA-1705) | MIC ([4]; NCTC 13304) | MIC ([5]; ATCC BAA-2340) | MIC ([6]; ATCC 27853) | MIC ([7]; PAE19-3) | MIC ([8]; KPN+19-15) | MIC ([9]; ABA19-1)
CCCCCCCC(=O)N[C@@H](CCN)C(=O)N[C@H](C(=O)N[C@@H](CN)C(=O)N[C@H]1CCNC(=O)[C@H]([C@@H](C)O)NC(=O)[C@H](CCN)NC(=O)[C@H](CCN)NC(=O)[C@H](CC(C)C)NC(=O)[C@@H](Cc2ccccc2)NC(=O)[C@H](CCN)NC1=O)[C@@H](C)O [Compound 38, Octanoyl-Dab-Thr-Dap-ring(4-10)[Dab-Dab-D-Phe-Leu-Dab-Dab-Thr]] (Octanoyl-[Dab]T[Dap][Dab][Dab][dF]L[Dab][Dab]T; lactam 4-C) | 219 ± 9.4 µg/mL (≈ 186 µM) | 0.03 µg/mL (≈ 0.0255 µM) | 0.03 µg/mL (≈ 0.0255 µM) | 0.03 µg/mL (≈ 0.0255 µM) | 0.03 µg/mL (≈ 0.0255 µM) | 0.03 µg/mL (≈ 0.0255 µM) | 0.25 µg/mL (≈ 0.213 µM) | 0.03 µg/mL (≈ 0.0255 µM) | 0.03 µg/mL (≈ 0.0255 µM) |  |  |  |  |  |  |  | 
CCCCCCC(=O)N[C@@H](CCN)C(=O)N[C@H](C(=O)N[C@@H](CN)C(=O)N[C@H]1CCNC(=O)[C@H]([C@@H](C)O)NC(=O)[C@H](CCN)NC(=O)[C@H](CCN)NC(=O)[C@H](CC(C)C)NC(=O)[C@@H](Cc2ccccc2)NC(=O)[C@H](CCN)NC1=O)[C@@H](C)O [Compound 39, Heptanoyl-Dab-Thr-Dap-ring(4-10)[Dab-Dab-D-Phe-Leu-Dab-Dab-Thr]] (Heptanoyl-[Dab]T[Dap][Dab][Dab][dF]L[Dab][Dab]T; lactam 4-C) | 357 ± 8.1 µg/mL (≈ 307 µM) |  |  |  |  |  |  |  |  | 0.03 µg/mL (≈ 0.0258 µM) | 0.03 µg/mL (≈ 0.0258 µM) | 0.03 µg/mL (≈ 0.0258 µM) | 0.03 µg/mL (≈ 0.0258 µM) | 0.06 µg/mL (≈ 0.0517 µM) | 0.5 µg/mL (≈ 0.431 µM) | 0.03 µg/mL (≈ 0.0258 µM) | 0.03 µg/mL (≈ 0.0258 µM)
CCCCCCCCC(=O)N[C@@H](CCN)C(=O)N[C@H](C(=O)N[C@@H](CN)C(=O)N[C@H]1CCNC(=O)[C@H]([C@@H](C)O)NC(=O)[C@H](CCN)NC(=O)[C@H](CCN)NC(=O)[C@H](CC(C)C)NC(=O)[C@@H](Cc2ccccc2)NC(=O)[C@H](CCN)NC1=O)[C@@H](C)O [Compound 40, Nonanoyl-Dab-Thr-Dap-ring(4-10)[Dab-Dab-D-Phe-Leu-Dab-Dab-Thr]] (Nonanoyl-[Dab]T[Dap][Dab][Dab][dF]L[Dab][Dab]T; lactam 4-C) | 158 ± 6.4 µg/mL (≈ 133 µM) |  |  |  |  |  |  |  |  | 0.06 µg/mL (≈ 0.0504 µM) | 0.06 µg/mL (≈ 0.0504 µM) | 0.06 µg/mL (≈ 0.0504 µM) | 0.06 µg/mL (≈ 0.0504 µM) | 0.06 µg/mL (≈ 0.0504 µM) | 0.5 µg/mL (≈ 0.42 µM) | 0.06 µg/mL (≈ 0.0504 µM) | 0.06 µg/mL (≈ 0.0504 µM)
CC[C@H](C)CCCCC(=O)N[C@@H](CCN)C(=O)N[C@H](C(=O)N[C@H](CCCN)C(=O)N[C@H]1CCNC(=O)[C@H]([C@@H](C)O)NC(=O)[C@H](CCN)NC(=O)[C@H](CCN)NC(=O)[C@H](CC(C)C)NC(=O)[C@@H](Cc2ccccc2)NC(=O)[C@H](CCN)NC1=O)[C@@H](C)O [Compound 41, (S)-6-methyloctanoyl-Dab-Thr-D-Orn-ring(4-10)[Dab-Dab-D-Phe-Leu-Dab-Dab-Thr]] (X1-[Dab]T[dOrn][Dab][Dab][dF]L[Dab][Dab]T; lactam 4-C) | 259 ± 7.8 µg/mL (≈ 212 µM) |  |  |  |  |  |  |  |  | 0.03 µg/mL (≈ 0.0246 µM) | 0.06 µg/mL (≈ 0.0493 µM) | 0.06 µg/mL (≈ 0.0493 µM) | 0.03 µg/mL (≈ 0.0246 µM) | 0.25 µg/mL (≈ 0.205 µM) | 1 µg/mL (≈ 0.821 µM) | 0.125 µg/mL (≈ 0.103 µM) | 0.125 µg/mL (≈ 0.103 µM)
CC(C)CCCCC(=O)N[C@@H](CCN)C(=O)N[C@H](C(=O)N[C@H](CCCN)C(=O)N[C@H]1CCNC(=O)[C@H]([C@@H](C)O)NC(=O)[C@H](CCN)NC(=O)[C@H](CCN)NC(=O)[C@H](CC(C)C)NC(=O)[C@@H](Cc2ccccc2)NC(=O)[C@H](CCN)NC1=O)[C@@H](C)O [Compound 42, 6-methylheptanoyl-Dab-Thr-D-Orn-ring(4-10)[Dab-Dab-D-Phe-Leu-Dab-Dab-Thr]] ({Heptanoyl(6-Me)}-[Dab]T[dOrn][Dab][Dab][dF]L[Dab][Dab]T; lactam 4-C) | 316 ± 6.7 µg/mL (≈ 262 µM) |  |  |  |  |  |  |  |  | 0.03 µg/mL (≈ 0.0249 µM) | 0.06 µg/mL (≈ 0.0499 µM) | 0.06 µg/mL (≈ 0.0499 µM) | 0.03 µg/mL (≈ 0.0249 µM) | 0.25 µg/mL (≈ 0.208 µM) | 1 µg/mL (≈ 0.831 µM) | 0.125 µg/mL (≈ 0.104 µM) | 0.125 µg/mL (≈ 0.104 µM)
CCCCCCCC(=O)N[C@@H](CCN)C(=O)N[C@H](C(=O)N[C@H](CCCN)C(=O)N[C@H]1CCNC(=O)[C@H]([C@@H](C)O)NC(=O)[C@H](CCN)NC(=O)[C@H](CCN)NC(=O)[C@H](CC(C)C)NC(=O)[C@@H](Cc2ccccc2)NC(=O)[C@H](CCN)NC1=O)[C@@H](C)O [Compound 43, Octanoyl-Dab-Thr-D-Orn-ring(4-10)[Dab-Dab-D-Phe-Leu-Dab-Dab-Thr]] (Octanoyl-[Dab]T[dOrn][Dab][Dab][dF]L[Dab][Dab]T; lactam 4-C) | 328 ± 8.6 µg/mL (≈ 273 µM) |  |  |  |  |  |  |  |  | 0.03 µg/mL (≈ 0.0249 µM) | 0.06 µg/mL (≈ 0.0499 µM) | 0.06 µg/mL (≈ 0.0499 µM) | 0.03 µg/mL (≈ 0.0249 µM) | 0.25 µg/mL (≈ 0.208 µM) | 1 µg/mL (≈ 0.831 µM) | 0.125 µg/mL (≈ 0.104 µM) | 0.125 µg/mL (≈ 0.104 µM)
CCCCCCC(=O)N[C@@H](CCN)C(=O)N[C@H](C(=O)N[C@H](CCCN)C(=O)N[C@H]1CCNC(=O)[C@H]([C@@H](C)O)NC(=O)[C@H](CCN)NC(=O)[C@H](CCN)NC(=O)[C@H](CC(C)C)NC(=O)[C@@H](Cc2ccccc2)NC(=O)[C@H](CCN)NC1=O)[C@@H](C)O [Compound 44, Heptanoyl-Dab-Thr-D-Orn-ring(4-10)[Dab-Dab-D-Phe-Leu-Dab-Dab-Thr]] (Heptanoyl-[Dab]T[dOrn][Dab][Dab][dF]L[Dab][Dab]T; lactam 4-C) | 308 ± 9.7 µg/mL (≈ 259 µM) |  |  |  |  |  |  |  |  | 0.06 µg/mL (≈ 0.0504 µM) | 0.06 µg/mL (≈ 0.0504 µM) | 0.06 µg/mL (≈ 0.0504 µM) | 0.06 µg/mL (≈ 0.0504 µM) | 0.5 µg/mL (≈ 0.42 µM) | 2 µg/mL (≈ 1.68 µM) | 0.125 µg/mL (≈ 0.105 µM) | 0.125 µg/mL (≈ 0.105 µM)
CCCCCCCCC(=O)N[C@@H](CCN)C(=O)N[C@H](C(=O)N[C@H](CCCN)C(=O)N[C@H]1CCNC(=O)[C@H]([C@@H](C)O)NC(=O)[C@H](CCN)NC(=O)[C@H](CCN)NC(=O)[C@H](CC(C)C)NC(=O)[C@@H](Cc2ccccc2)NC(=O)[C@H](CCN)NC1=O)[C@@H](C)O [Compound 45, Nonanoyl-Dab-Thr-D-Orn-ring(4-10)[Dab-Dab-D-Phe-Leu-Dab-Dab-Thr]] (Nonanoyl-[Dab]T[dOrn][Dab][Dab][dF]L[Dab][Dab]T; lactam 4-C) | 139 ± 6.7 µg/mL (≈ 114 µM) |  |  |  |  |  |  |  |  | 0.06 µg/mL (≈ 0.0493 µM) | 0.06 µg/mL (≈ 0.0493 µM) | 0.06 µg/mL (≈ 0.0493 µM) | 0.06 µg/mL (≈ 0.0493 µM) | 0.5 µg/mL (≈ 0.411 µM) | 2 µg/mL (≈ 1.64 µM) | 0.125 µg/mL (≈ 0.103 µM) | 0.125 µg/mL (≈ 0.103 µM)
CC[C@H](C)CCCCC(=O)N[C@@H](CCN)C(=O)N[C@H](C(=O)N[C@@H](CCCN)C(=O)N[C@H]1CCNC(=O)[C@H]([C@@H](C)O)NC(=O)[C@H](CCN)NC(=O)[C@H](CCN)NC(=O)[C@H](CC(C)C)NC(=O)[C@@H](Cc2ccccc2)NC(=O)[C@H](CCN)NC1=O)[C@@H](C)O [Compound 46, (S)-6-methyloctanoyl-Dab-Thr-Orn-ring(4-10)[Dab-Dab-D-Phe-Leu-Dab-Dab-Thr]] (X1-[Dab]T[Orn][Dab][Dab][dF]L[Dab][Dab]T; lactam 4-C) | 287 ± 10.7 µg/mL (≈ 236 µM) |  |  |  |  |  |  |  |  | 0.03 µg/mL (≈ 0.0246 µM) | ≤0.03 µg/mL | 0.06 µg/mL (≈ 0.0493 µM) | 0.03 µg/mL (≈ 0.0246 µM) | ≤0.03 µg/mL | 0.25 µg/mL (≈ 0.205 µM) | ≤0.03 µg/mL | 0.125 µg/mL (≈ 0.103 µM)
